# Data published in US8119640B2, “Hedgehog pathway antagonists methods of use” (The Board of Trustees of the Leland Stanford Junior …, priority 2008, dated 2012).
# Where two headings read alike, the source gives them in different places.
# Columns and labels:
# Hh pathway = assay: Shh-LIGHT2 assay for Hh pathway activation (Gli-dependent firefly luciferase); format: cell-based
# Protocol: Shh-LIGHT2 assay for Hh pathway activation and library screening conditions. h-N-conditioned medium was prepared as previously described. […] For 96-well plate assays, Shh-LIGHT2 cells were seeded into each plate (10,000 cells/well) and cultured to confluency. The Shh-LIGHT2 cells were then grown in DMEM containing 0.5% CS, 100 U/mL penicillin, 0.1 mg/mL streptomycin, either 5% Shh-N-conditioned medium or 500 nM SAG, and various concentrations of the HPIs. After the cells were cultured for another 30 h, the resulting firefly and Renilla luciferase activities were measured using a Dual Luciferase Reporter kit (Promega) and a Veritas microplate luminometer (Turner Biosystems).
# When the cells reached >90% confluency, they were removed by trypsinization and diluted to a final volume of 50 mL medium. This cell suspension was then plated into clear-bottom, white-walled 384-well plates using a Titertek Multidrop dispenser (50 μL/well) and the cells were cultured until they reached confluency (3-4 days). […] The plates were then placed into an automated Staccato system (Caliper Life Sciences), which includes an automated CO2 incubator. An automated protocol was then run, in 3 which a Multidrop dispenser added 10 μL of a SAG solution in 0.5% CS medium (final SAG concentration of 500 nM) to columns 1-22 and 100 nL of each compound solution was added to the plates using a V&P Scientific pin tool, resulting in a final compound screening concentration of 10 μM. The SAG-free wells were used as negative controls. After 28-32 h, the assay medium was manually removed and the plates were frozen. To assay the firefly luciferase activities, the plates were thawed and placed into a Twister II stacker in the Staccato system. Bright-Glo luciferase substrate (Promega) was added by the Multidrop dispenser and the plates were analyzed on an Analyst GT microplate reader (2 min in the dark, 0.2 sec integration/well; Molecular Devices). Hits were defined as compounds that reduce the firefly luciferase signal by at least 50% compared to inhibitor-free controls. Primary hits were then re-tested in duplicate in an eight-point, 1:1 serially diluted doseresponse curve with a starting concentration of 20 μM. In these experiments, the median inhibitory concentration (IC50) for both firefly and Renilla luciferase were determined using a Dual-Glo kit (Promega).
# FLAG-Gli2 = assay: Analysis of Gli2 processing and Shh-dependent Gli2 stabilization; format: cell-based, mouse; conditions: Shh-EGFP FLAG-Gli2 cells, absence and presence of Shh, 24 h
# Protocol: Analysis of Gli2 processing and Shh-dependent Gli2 stabilization. […] Each compound incubation was also done in the absence and presence of 5% Shh-N-conditioned medium, and the cells were maintained under these conditions for 24 h. The cells were subsequently solubilized in lysis buffer (100 μL/well; 50 mM Tris-HCl, pH 7.4, 1% Triton X-100, 250 mM NaCl, 2 mM EDTA, 20 mM NaF, 2 mM Na3VO4, 2 mM 2-mercaptoethanol, EDTA-free protease inhibitor cocktail (Roche)). This suspension was transferred to a 1.5-mL centrifuge tube and incubated on ice for 30 min, with vortexing every 5 min. The cell lysates were then centrifuged at 20,000×g at 4° C. for 20 min. Supernatants were removed, and a BCA protein assay was performed to quantify protein levels. Mouse anti-FLAG M2 agarose slurry (20 μL, Sigma) was pelleted by centrifugation and incubated with 800 ng of protein from each condition for 90 min at 4° C. and then washed three times with 1 mL of wash buffer (75 mM Tris-HCl buffer, pH 8.0 containing 225 mM NaCl, 0.5% Triton X-100) and centrifuged at 2,300×g at 4° C. The agarose beads were suspended in 30 μL of 1×SDS-PAGE sample buffer (50 mM Tris-HCl, pH 6.8 containing 10% glycerol, 2% SDS, 50 mM DTT, 200 mM 2-mercaptoethanol, and 0.001% bromophenol blue), and the mixture was boiled for 5 min. The samples were then resolved on a 4-12% Bis-Tris Criterion XT gel and transferred to a PVDF membrane. The membrane was dehydrated with methanol, and then probed with rabbit anti-FLAG antibody (Sigma; 1:1,000 dilution in blocking buffer (PBS 21 containing 3% non-fat dried milk and 0.01% Tween 20)) for 90 min. […] Blots were washed 4×3 min in PBS, and the immunoreactive bands were detected with a SuperSignal West Dura kit and a ChemiDoc XRS system. Protein bands were quantified using Quantity One software (Bio-Rad). For each experiment, boxes of equal size were drawn around the FLAG-Gli2 and FLAG-Gli2R bands. Band intensities were then normalized to the average intensity for all bands in a given experiment. The results from all experiments were averaged and normalized relative to the basal level of FLAG-Gli2 (DMSO treatment without Shh-N-conditioned medium).
# [1] = SAG-stimulated Shh-LIGHT2 cells, firefly luciferase, read-out: median inhibitory concentrations (IC50s) in the screen
# [2] = Shh Light2, stimulated with 500 nM SAG, read-out: IC50 (uM) SAG/Shh-LIGHT2 cells
# [3] = Shh Light2, stimulated with Shh-N-conditioned medium, read-out: IC50 (uM) Shh/Shh-LIGHT2 cells
Structure (SMILES),IC50 (Hh pathway; [1]) [µM],IC50 (Hh pathway; [2]) [µM],IC50 (Hh pathway; [3]) [µM],FLAG-Gli2 levels and processing (immunoblotting) (FLAG-Gli2),"IC50 (Hh pathway; Shh Light2, read-out: IC50 (uM) SAG/Shh-LIGHT2 cells) [µM]","IC50 (Hh pathway; Shh Light2, read-out: IC50 (uM) Shh/Shh-LIGHT2 cells) [µM]"
"COCCOC(=O)C1=C(C)NC2=C(C(=O)CC(c3ccccc3OC)C2)C1c1cccc(O)c1 (mixture of isomers) [Compound 8, 4-(3-Hydroxy-phenyl)-7-(2-methoxy-phenyl)-2-methyl-5-oxo-1,4,5,6,7,8-hexahydro-quinoline-3-carboxylic acid 2-methoxy-ethyl ester]",< 10,1.5,1.3,slightly elevated levels of full-length and repressor forms of FLAG-Gli2 under basal conditions and greater FLAG-Gli2 processing upon Shh stimulation,–,–
N#Cc1cc2c(nc1SCC(=O)Nc1nc3ccccc3s1)CCC2 [Compound 1],–,0.21,0.25,–,–,–
CCCCNC(=N)C(C)c1ccc(CC(C)C)cc1 (centres unmarked) [Compound 2],–,2.2,1.6,–,–,–
Cc1cc(/C=c2\sc3nc4ccccc4n3c2=O)c(C)n1C(C)C [Compound 3],–,0.55,0.5,–,–,–
O=C(Nc1cccc2ccccc12)OC[C@@H]1CCCN2CCCC[C@H]12 [Compound 4],–,4,1.8,–,–,–
CCC(C)NS(=O)(=O)c1ccc(Cc2ccc(S(=O)(=O)NC(C)CC)cc2)cc1 (centres unmarked) [Compound 5],–,0.8,1,–,–,–
CCOC(=O)c1cc2c(=O)n3ccccc3nc2n(C(C)C)c1=NC(=O)c1cc(OC)cc(OC)c1 [Compound 6],–,1,1,–,–,–
CCN1CCCC1CNC(=O)C1CCN(c2nc3c(C)cc(C)cc3s2)CC1 (centres unmarked) [Compound 7],–,1,1.6,–,–,–
CCOC(=O)c1cn(-c2ccccc2)nc1-c1ccc(OC)c(OC)c1 [Compound 9],–,5,5,–,–,–
O=S(=O)(Nc1cc(Cl)c(Cl)cc1Cl)c1ccc(F)cc1 [Compound 10],–,2.2,2.2,–,–,–
OCCNc1nc(N2CCN(c3ccccc3)CC2)nc2ccccc12 [Compound 11],< 10,1.5,2,moderately increased total FLAG-Gli2 levels as well but did not alter proteolytic processing of the transcription factor,–,–
CC(C)(C)N(CCNS(=O)(=O)c1ccc(-c2cc(C(F)(F)F)no2)s1)Cc1ccco1 [Compound 12],–,2,2,–,–,–
CN1CCN(C2Cc3ccccc3Sc3ccccc32)CC1 (centres unmarked) [Compound 13],–,1.6,1.4,–,–,–
CCOc1ccc2ncc(C(=O)c3ccc(C)cc3)c(N3CCCC3)c2c1 [Compound 14],–,–,–,–,5.5,5.5
O=C(Nc1nnc(S(=O)(=O)N2CCCCC2)s1)c1cccc(Br)c1 [Compound 15],–,5,4.5,–,–,–
CCOc1ccc(CCNc2cnnc3c(Cl)cccc23)cc1OCC [Compound 16],–,8,4.5,–,–,–
COc1ccc(OC)c2c1cc1n2CC(C)(C(=O)NC2CCCCCCC2)N(CCN(C)C)C1=O (centres unmarked) [Compound 17],< 10,2,2,moderately increased total FLAG-Gli2 levels as well but did not alter proteolytic processing of the transcription factor,–,–
N#CC(C(=O)c1ccc(Cl)cc1Cl)=C1NC(=O)c2ccccc2N1 [Compound 18],< 10,8,7.5,both decreased total FLAG-Gli2 levels and prevented Shh dependent stabilization of full-length FLAG-Gli2,–,–
